# Patent US20220218715A1, “NOVEL USE OF PYRROLO-PYRIDINE DERIVATIVE COMPOUND FOR PREVENTION AND/OR TREATMENT OF CANCER” (VORONOI CO., LTD., priority 2019, published 2022)
# What was measured:
# [1] = tested on: NCI-H1975 lung cancer cells; experiment: Anticancer effect in mouse model with NCI-H1975 lung cancer cells; format: in vivo, Balb/c Nude Mice; conditions: singular treatment with Osimertinib 3.5 mg/kg PO QD
# Description: The NCI-H1975 cell line was purchased from the Institute of Biochemistry and Cell Biology (Shanghai Institutes for Biological Sciences, CAS). Cells were kept in RPMI-1640 containing 10% FBS, and cultured in a 37° C. humidified cell culture incubator at 5% CO2. All animal experiments were carried out according to the Animal Use and Management Guidelines of Shanghai Medicilon Inc. […] Tumor size and animal body weight were measured twice weekly, and clinical symptoms were recorded daily. The mice will be administered individually according to most recent body weight. The tumors were measured using calipers using two measurements, length (a) and width (b). The volume of the tumors was calculated individually as follows, from the two measured diameters of the tumors: tumor volume (mm^3)=(a×b^2)/2.
# PC-9 lung cancer cells = experiment: Anticancer effect in mouse model with PC-9 lung cancer cells; format: in vivo, Balb/c Nude Mice; conditions: PC-9 model; singular treatment with EGFR targeting drug, PO QD (Gefitinib 10 mg/kg, Osimertinib 3 mg/kg)
# Description: The PC-9 cell line was purchased from NanJing Cobioer Biological Technology Co., Ltd. Cells were kept in RPMI-1640 containing 10% FBS, and cultured in a 37° C. humidified cell culture incubator at 5% […]. All animal experiments were carried out according to the Animal Use and Management Guidelines of Shanghai Medicilon Inc. Under sterile conditions, 2×10^6 PC-9 tumor cells (0.1 mL, cell:Matrigel®=1:1) was administered to the right waist of each animal by S.C. administration. Tumor size and animal body weight were measured twice weekly, and clinical symptoms were recorded daily. The mice will be administered individually according to most recent body weight. The tumors were measured using calipers using two measurements, length (a) and width (b). The volume of the tumors was calculated individually as follows, from the two measured diameters of the tumors: tumor volume (mm^3)=(a×b^2)/2.
structure (smiles),measurement,setting,value
"C=CC(=O)Nc1cc(Nc2nccc(-c3cn(C)c4ccccc34)n2)c(OC)cc1N(C)CCN(C)C [Osimertinib, reference compound]",cancer cell regrowth during treatment,[1],early regrowth of cancer cells was observed
same,cancer cell regrowth during treatment,PC-9 lung cancer cells,early regrowth of cancer cells was observed
